The supplement of paper PMC4862054

Legend:
Test in all cases: normalised response (% of control), CellTiter-Glo; higher = more viable cells (100 = DMSO, 0 = benzethonium chloride kill control)
Details in all cases: incubation time: 72 h
[1] = system: HCC1599
Outline: (§1)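 Plates were normalised with 0.1 % DMSO as 100 and a positive kill control as 0. Breast cancer cell lines in 20 µl suspension had been seeded into 384-well plates with compound at 5 concentrations in 10-fold steps over a compound-specific 10,000-fold range, incubated 72 h, and read for CellTox Green fluorescence (485/520 nm) followed by CellTiter-Glo luminescence. Each value is the normalised signal at a single concentration.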

[2] = system: MCF-10A
Outline: as §1

[3] = system: Hs578T
Outline: as §1

[4] = system: CAL-120
Outline: as §1

[5] = system: BT-549
Outline: as §1

[6] = system: DU-4475
Outline: as §1

[7] = system: HCC1937
Outline: as §1

[8] = system: SK-BR-3
Outline: as §1

[9] = system: MDA-MB-453
Outline: as §1

[10] = system: MDA-MB-468
Outline: as §1

[11] = system: CAL-51
Outline: as §1

[12] = system: BT-474
Outline: as §1

[13] = system: CAL-148
Outline: as §1

[14] = system: HCC1143
Outline: as §1

[15] = system: MDA-MB-231
Outline: as §1

[16] = system: HDQ-P1
Outline: as §1

[17] = system: MDA-MB-436
Outline: as §1

[18] = system: CAL-85-1
Outline: as §1

[19] = system: MFM-223
Outline: as §1

Row | SMILES | normalised response [1] [%] | normalised response [2] [%] | normalised response [3] [%] | normalised response [4] [%] | normalised response [5] [%] | normalised response [6] [%] | normalised response [7] [%] | normalised response [8] [%] | normalised response [9] [%] | normalised response [10] [%] | normalised response [11] [%] | normalised response [12] [%] | normalised response [13] [%] | normalised response [14] [%] | normalised response [15] [%] | normalised response [16] [%] | normalised response [17] [%] | normalised response [18] [%] | normalised response [19] [%]
1 | CO[C@H]1/C=C\C=C(/C)C(=O)NC2=CC(=O)C(NCCN(C)C)=C(C[C@@H](C)C[C@H](OC)[C@H](O)[C@@H](C)/C=C(\C)[C@@H]1OC(N)=O)C2=O [Alvespimycin] (100 nM) | 76.9 | 13.5 | 41.8 | 52 | 33.7 | 0.07 | 36.5 | 44.1 | 25.8 | 39.6 | 26.7 | 36.1 | 23.9 | 35.4 | 26.5 | 31.3 | 46.6 | 23 | 39.9
2 | CCC1(c2ccc(N)cc2)CCC(=O)NC1=O (stereo not given) [Aminoglutethimide] (1000 nM) | 115 | 101 | 101 | 105 | 94.7 | 101 | 96.8 | 95.6 | 100 | 105 | 80.4 | 100 | 96.2 | 97.6 | 105 | 97 | 102 | 103 | 101
3 | Cn1c(CCCC(=O)O)nc2cc(N(CCCl)CCCl)ccc21 [Bendamustine] (1000 nM) | 105 | 96.9 | 106 | 104 | 92.4 | 101 | 95.7 | 107 | 117 | 117 | 112 | 101 | 110 | 106 | 106 | 102 | 101 | 101 | 111
4 | C=C(c1ccc(C(=O)O)cc1)c1cc2c(cc1C)C(C)(C)CCC2(C)C [Bexarotene] (1000 nM) | 57.6 | 81.8 | 94.9 | 104 | 102 | 103 | 102 | 80 | 103 | 103 | 111 | 87.8 | 86.4 | 102 | 106 | 104 | 99.4 | 102 | 102
5 | COc1cc2nccc(Oc3ccc(NC(=O)C4(C(=O)Nc5ccc(F)cc5)CC4)cc3)c2cc1OC [Cabozantinib] (100 nM) | 117 | 88.6 | 103 | 101 | 96.5 | 99.6 | 95.6 | 104 | 106 | 96.7 | 109 | 87.7 | 98.1 | 92.2 | 90.5 | 97.6 | 99.2 | 93.6 | 98.7
6 | CN(C)/N=N/c1[nH]cnc1C(N)=O [Dacarbazine] (1000 nM) | 111 | 104 | 105 | 96 | 101 | 101 | 101 | 102 | 104 | 117 | 91.2 | 101 | 97.8 | 103 | 105 | 95.4 | 101 | 100 | 105
7 | Cc1ccc(-n2nc(C(C)(C)C)cc2NC(=O)Nc2ccc(OCCN3CCOCC3)c3ccccc23)cc1 [Doramapimod] (1000 nM) | 108 | 89.1 | 97 | 101 | 99.6 | 96 | 95.1 | 80.8 | 85.8 | 87.5 | 111 | 86.1 | 80.3 | 95.2 | 83.7 | 89.1 | 105 | 121 | 87.6
8 | C#Cc1cccc(Nc2ncnc3cc(OCCOC)c(OCCOC)cc23)c1 [Erlotinib] (1000 nM) | 100 | 37.1 | 99.8 | 93.5 | 100 | 104 | 93.4 | 97.5 | 107 | 82.9 | 80.3 | 96.3 | 82.1 | 94.7 | 102 | 69.3 | 99.9 | 60.2 | 100
9 | COc1cc([C@@H]2c3cc4c(cc3[C@@H](O[C@@H]3O[C@@H]5CO[C@@H](C)O[C@H]5[C@H](O)[C@H]3O)[C@H]3COC(=O)[C@H]23)OCO4)cc(OC)c1O [Etoposide] (1000 nM) | 63.5 | 99.8 | 91 | 93.3 | 76.7 | 56.8 | 94 | 67.7 | 153 | 87.3 | 65.7 | 93.2 | 69 | 86.2 | 94.7 | 97.6 | 67 | 101 | 114
10 | O=P1(NCCCl)OCCCN1CCCl (stereo not given) [Ifosfamide] (1000 nM) | 96.1 | 95.6 | 97.8 | 91.4 | 96.1 | 90.6 | 97.7 | 92 | 92.5 | 90.9 | 105 | 93.3 | 89 | 94.7 | 88.3 | 104 | 91.3 | 96.8 | 92.5
11 | CC1(C)NC(=O)N(c2ccc([N+](=O)[O-])c(C(F)(F)F)c2)C1=O [Nilutamide] (1000 nM) | 110 | 111 | 113 | 102 | 91.2 | 105 | 103 | 110 | 102 | 119 | 82.4 | 99.8 | 109 | 101 | 102 | 97.7 | 106 | 98.5 | 107
12 | Cc1ccc(C(=O)Nc2ccc(CN3CCN(C)CC3)c(C(F)(F)F)c2)cc1C#Cc1cnc2cccnn12 [Ponatinib] (100 nM) | 117 | 103 | 96.5 | 86.3 | 107 | 99.3 | 97.2 | 107 | 110 | 120 | 112 | 93 | 99.6 | 97.6 | 91.4 | 92.1 | 97 | 105 | 54.5
13 | Cn1c(Nc2ccc(C(F)(F)F)cc2)nc2cc(Oc3ccnc(-c4ncc(C(F)(F)F)[nH]4)c3)ccc21 [RAF265] (100 nM) | 120 | 91.4 | 82.5 | 82.9 | 91.1 | 95.3 | 91.6 | 92 | 110 | 85.5 | 77.8 | 99.3 | 97.1 | 95.9 | 104 | 75 | 89.8 | 98.5 | 96.5
14 | CNCc1ccc(-c2[nH]c3cc(F)cc4c3c2CCNC4=O)cc1 [Rucaparib] (1000 nM) | 94.4 | 101 | 107 | 105 | 100 | 97.6 | 105 | 86.7 | 100 | 93.5 | 106 | 92.3 | 95.3 | 94.1 | 99 | 98.8 | 88.8 | 110 | 96.3
15 | N[C@@H](CSC(c1ccccc1)(c1ccccc1)c1ccccc1)C(=O)O [S-trityl-L-cysteine] (4000 nM) | 109 | 96.3 | 99.2 | 102 | 98.6 | 91.1 | 97.3 | 94.3 | 103 | 105 | 87.3 | 102 | 97.6 | 94 | 105 | 99.5 | 100 | 99.8 | 101
16 | CN(N=O)C(=O)N[C@@H](C=O)[C@@H](O)[C@H](O)[C@H](O)CO [Streptozocin] (1000 nM) | 107 | 109 | 109 | 105 | 98.2 | 100 | 108 | 100 | 109 | 104 | 107 | 107 | 100 | 112 | 106 | 107 | 98.3 | 104 | 103
17 | O=C1CCC(N2C(=O)c3ccccc3C2=O)C(=O)N1 (stereo not given) [Thalidomide] (1000 nM) | 114 | 102 | 107 | 101 | 96.3 | 100 | 98 | 99.4 | 102 | 106 | 120 | 102 | 96 | 95.9 | 95.8 | 101 | 99.1 | 94.5 | 93.8
18 | CN[C@@H]1C[C@H]2O[C@@](C)([C@@H]1OC)n1c3ccccc3c3c4c(c5c6ccccc6n2c5c31)C(=O)N[C@H]4O [UCN-01] (1000 nM) | 8.97 | 1.2 | 11.7 | 20.5 | 17.8 | 7.33 | 32 | 22.3 | 34 | 5.24 | 11.8 | 12.4 | 75.2 | 17.3 | 7.91 | 18.8 | 27.5 | 23.2 | 30.2
19 | Clc1ccc(Nc2nnc(Cc3ccncc3)c3ccccc23)cc1 [Vatalanib] (1000 nM) | 124 | 103 | 100 | 99.2 | 100 | 106 | 103 | 104 | 95.4 | 103 | 94.4 | 95.2 | 98.7 | 97 | 105 | 109 | 106 | 97.7 | 104
20 | CCC1=C[C@@H]2CN(C1)Cc1c([nH]c3ccccc13)[C@@](C(=O)OC)(c1cc3c(cc1OC)N(C)[C@H]1[C@@](O)(C(=O)OC)[C@H](OC(C)=O)[C@]4(CC)C=CCN5CC[C@]31[C@@H]54)C2 [Vinorelbine] (1000 nM) | 26 | 63 | 35.5 | 66.9 | 41.8 | 69.9 | 73.8 | 16.9 | 56.1 | 30.3 | 26.7 | 55.7 | 43.2 | 56.9 | 43.5 | 76.2 | 24.7 | 39 | 39.3
